# Several values for one entry are separate records, joined by “and”; a condition that tells them apart may be missing. Identical values can stand only once.
# Columns and labels:
# Assay type in all cases: in vivo
# [1] = tested on: German cockroach (Blattella germanica); assay: Choice test arena repellency bioassay, adult male German cockroach, 300-second test; conditions: for Mean Treated / Mean Untreated: 300-second test; for % repellency: (untreated − treated/300)*100
# Description: Test Procedure. Repellency bioassays were conducted to assess the repellent properties of compositions containing catnip steam distillate (nepetalactone), Z,E-nepetalactone, E,Z-nepetalactone and DEET against cockroaches. Certified acetone and certified hexane were also tested in order to evaluate solvent effects. (DEET was dissolved in acetone, because DEET is insoluble in hexane. The tested compounds were dissolved in hexane because hexane was the solvent used to extract these compounds from the distillate). One Whatman 125-mm round filter paper was cut in half. One side was treated with one (1) ml of the test compound and the other side was treated with one (1) ml of solvent. The papers were allowed to dry in a fume hood for approximately two (2) minutes before being placed in a 150-mm Petri dish arena. The relative position of the treated side (i.e., to the right or left) of the dish was randomized using a random number table. […] The hole was stopped using a small piece of tape to prevent the insect from escaping. One adult male German cockroach (Blattella germanica) was selected from the colony and dropped into the pre-formed hole in the Petri dish lid. […] Ten (10) replications were performed for each test compound. Results. Using mean values and their related Standard Error of the Mean values (SEM), repellency of the selected samples was determined as shown in Table 2. Significance due to concentration was determined using ANOVA. […] Comparisons between test compounds were made using a two-tailed paired t-test (“paired t-test”) which indicates “differences” as is known in the art and shown in Table 4 (as compared with a “one-tailed” test, which indicates “greater or less than”). Testing Procedure. The same procedure described in Example 1 was used.
# [2] = tested on: northern house mosquito, Culex pipiens; assay: Mosquito residual repellency bioassay (aged treated filter papers), static-air chamber
# Text: Aged applications of catnip essential oil, elemol, DEET, and hexane (control) were compared in the static-air choice-test apparatus under the same conditions as described above. The 0.5% and 0.1% (wt/vol) solutions of each test solution were made to yield the same rate of active ingredient used in the above mosquito repellency bioassay. Individually treated filter papers were then placed in a fume hood and aged for 0, 30, 60, 120, or 180-minutes, allowing volatization to occur over a set period of time. After the specified ageing period, filter papers were placed on the inside of the 9-cm glass petri dish lids, and then placed over the ends of the glass tube. The position of the treated side was randomized. Approximately […] unmated adult female mosquitoes were anaesthetized with CO2 and then introduced to the 9×60-cm glass cylinder through the centered 2-cm hole. Timing began 2 minutes after mosquito introduction, and mosquito distribution (number of individuals on treated and untreated sides) inside the static-air choice-test apparatus was recorded after 15 minutes for determination of Percentage Repellency (calculations shown under Percentage and Contact Repellency Bioassay). Experimental design was completely randomized with three replications of each aged test solution. Analysis of variance was used to identify significant differences related to active ingredient, concentration, and ageing period. Regression analysis was used to examine percentage repellency relationship to filter paper ageing.
# [3] = tested on: yellow fever mosquitoes, Aedes aegypti; assay: Static-air repellency chamber, spatial and contact repellency, adult female yellow fever mosquitoes; conditions: for long term repellency (in excess of two hours): Table 20, up to 360 min; for Average Percentage Repellency Over Time: application rate 78.6 μg/cm^2
# Description: Test Equipment. In this testing, a static air repellency chamber was used. The apparatus consisted of a 9×60-cm section of glass tubing with a 2-cm hole drilled at the midpoint along the length for central introduction of the insects. All of the testing was conducted in an environmental chamber at ambient temperatures.
# Test Methods. The data for spatial repellency was collected at 15 minutes after the introduction of female yellow fever mosquitoes into a static air repellency chamber. Data for the contact repellency was collected after three hours. The concentrations used in the tests are 1% solution (1 ml of it on a 9-cm diameter filter paper). One (1) ml of a 1% (wt/vol) solution of repellent substance containing hexane as a carrier was pipetted onto a 9-cm diameter filter paper results in a concentration of 157 μg/cm^2. The solution contained the desired mass of compound to be tested added to the desired volume of hexane, e.g., for a 1% solution of catnip essential oil, […] was added to 100 ml of hexane.
# One milliliter of the solution was applied to one half of a 9-cm diameter round filter paper with an area of 63.6 cm^2 and then allowed to dry before testing. […] Treated filter papers were placed inside the lids of 9-cm glass petri dishes, and placed over the ends of the glass tube. The position of the treated side, to the right or to the left, was selected by using a random-number table. Approximately fifteen unmated adult female mosquitoes were anaesthetized with CO2 and then introduced to the 9×60-cm glass cylinder through the centered 2-cm hole. Timing began 2 minutes after mosquito introduction, and mosquito distribution inside the static-air choice-test apparatus was observed over a 15-minute period for each treatment to determine spatial repellency. Basically the number of mosquitoes in the non-treated half were considered to be repelled and were counted. Percent repellency was considered to be: (Number of Individuals on Untreated Half−Number of Individuals on Treated Half)/15)×100. Contact repellency was defined in this assay as 100% avoidance of the treated filter paper-after three hours. The experimental design was a completely randomized design using six replications of each treatment.
# All test methods were the same as described in Example 7, except spatial repellency over a longer period.
# Test Methods. […] Also only three replications were used instead of six.
# [4] = 15.7 μg/cm^2 (0.1%), treatment aged 0 min
# [5] = 15.7 μg/cm^2 (0.1%), treatment aged 30 min
# [6] = 15.7 μg/cm^2 (0.1%), treatment aged 60 min
# [7] = 15.7 μg/cm^2 (0.1%), treatment aged 120 min
# [8] = 15.7 μg/cm^2 (0.1%), treatment aged 180 min
# [9] = 78.6 μg/cm^2 (0.5%), treatment aged 0 min
# [10] = 78.6 μg/cm^2 (0.5%), treatment aged 30 min
# [11] = 78.6 μg/cm^2 (0.5%), treatment aged 60 min
# [12] = 78.6 μg/cm^2 (0.5%), treatment aged 120 min
# [13] = 78.6 μg/cm^2 (0.5%), treatment aged 180 min
# [14] = 0.1% test solution vs solvent-treated half, male
# [15] = 0.5% test solution vs solvent-treated half, male
# [16] = 1% test solution vs solvent-treated half, male
# [17] = 5% test solution vs solvent-treated half, male
# [18] = 10% test solution vs solvent-treated half, male
structure (smiles),measurement,setting,value
C=CC1(C)CCC(C(C)(C)O)CC1C(=C)C (stereo not shown) [Elemol],Mean Treated,[1]; amount used 1% solution,107 s
same,Mean Untreated,[1]; amount used 1% solution,196 s
same,% repellency,[1]; amount used 1% solution,30%
same,Percentage Repellency Over Time,[2]; [4],35.0%
same,Percentage Repellency Over Time,[2]; [5],30.8%
same,Percentage Repellency Over Time,[2]; [6],49%
same,Percentage Repellency Over Time,[2]; [7],20.7%
same,Percentage Repellency Over Time,[2]; [8],44.8%
same,Percentage Repellency Over Time,[2]; [9],84.7%
same,Percentage Repellency Over Time,[2]; [10],76.5%
same,Percentage Repellency Over Time,[2]; [11],96.5%
same,Percentage Repellency Over Time,[2]; [12],80.8%
same,Percentage Repellency Over Time,[2]; [13],76.5%
same,% repellency,"[3]; 78.6 μg/cm^2 (equivalent to a 0.5% solution), determined at 15 minutes, three replications",38.9%
same,Avoidance Frequency,"[3]; Conc 1% (157 μg/cm^2), average of mosquito contact repellency over 3-hour time period",97
same,Repellency (%) (15-minute spatial repellency),"[3]; Conc 1% (157 μg/cm^2), determined at 15 minutes, six replications",63.6%
same,long term repellency (in excess of two hours),[3],long term repellency
same,Average Percentage Repellency Over Time,[3]; 60 min,52%
same,Average Percentage Repellency Over Time,[3]; 120 min,43%
same,Average Percentage Repellency Over Time,[3]; 360 min,35%
same,Average Percentage Repellency Over Time,[3]; Initial,56%
same,spatial and contact repellency over a 6-hour time period,"[3]; other data from our lab, 6-hour time period",good spatial and very good contact repellents
"CCN(CC)C(=O)c1cccc(C)c1 [DEET, N,N-diethyl-3-methylbenzamide, reference compound]",Mean Treated,[1]; [14],129 s
same,Mean Untreated,[1]; [14],175 s
same,Mean Treated,[1]; [15],128 s
same,Mean Untreated,[1]; [15],175 s
same,Mean Treated,[1]; [16],120 s
same,Mean Untreated,[1]; [16],181 s
same,Mean Treated,[1]; [17],113 s
same,Mean Untreated,[1]; [17],190 s
same,Mean Treated,[1]; [18],63 s and 63.4 s
same,Mean Untreated,[1]; [18],238 s
same,Mean seconds on treated side ± SEM,"[1]; Non-antennectomized male cockroaches, 1600 μg/cm^2",63.4 ± 15.9 s
same,% repellency,[1]; dose 16 μg/cm^2,15%
same,Mean seconds on treated side ± SEM,"[1]; dose 16 μg/cm^2, male B. germanica, in 300 seconds",129 ± 9.0 a seconds
same,% repellency,[1]; dose 80 μg/cm^2,16%
same,Mean seconds on treated side ± SEM,"[1]; dose 80 μg/cm^2, male B. germanica, in 300 seconds",128 ± 9.7 a seconds
same,% repellency,[1]; dose 160 μg/cm^2,20%
same,Mean seconds on treated side ± SEM,"[1]; dose 160 μg/cm^2, male B. germanica, in 300 seconds",120 ± 13.8 a seconds
same,% repellency,[1]; dose 800 μg/cm^2,26%
same,Mean seconds on treated side ± SEM,"[1]; dose 800 μg/cm^2, male B. germanica, in 300 seconds",113 ± 14.5 a seconds
same,% repellency,[1]; dose 1600 μg/cm^2,58%
same,Mean seconds on treated side ± SEM,"[1]; dose 1600 μg/cm^2, male B. germanica, in 300 seconds",63.4 ± 15.9 b seconds
same,Percentage Repellency Over Time,[2]; [4],54.9%
same,Percentage Repellency Over Time,[2]; [5],23.1%
same,Percentage Repellency Over Time,[2]; [6],45.7%
same,Percentage Repellency Over Time,[2]; [7],39%
same,Percentage Repellency Over Time,[2]; [8],70.6%
same,Percentage Repellency Over Time,[2]; [9],74.0%
same,Percentage Repellency Over Time,[2]; [10],37%
same,Percentage Repellency Over Time,[2]; [11],59%
same,Percentage Repellency Over Time,[2]; [12],77.7%
same,Percentage Repellency Over Time,[2]; [13],74%
same,long term repellency (in excess of two hours),[3],long term repellency
same,Average Percentage Repellency Over Time,[3]; 60 min,64%
same,Average Percentage Repellency Over Time,[3]; 120 min,47%
same,Average Percentage Repellency Over Time,[3]; 360 min,49%
same,Average Percentage Repellency Over Time,[3]; Initial,52%

# Reference: patent US7939091B2, “Biorational repellents obtained from terpenoids for use against arthropods” (Iowa State University Research Foundation, Inc., priority 1999, dated 2011)
